Data from DBAASP.
Converted amounts (≈) assume the structure as drawn. Blank lines part the entries; values can stand above or below the molecule they belong to.

Experiments:
Assay in all cases: ≥ marks a high value that may be exact or a test limit, other limits are often not marked, values filed in µg/mL are converted to µM
[1] = test system: Escherichia coli ATCC 25922
[2] = test system: Pseudomonas aeruginosa ATCC 27853
[3] = test system: Staphylococcus aureus ATCC 12600
[4] = test system: Streptococcus mutans ATCC 25175
[5] = test system: Bacillus subtilis ATCC 6633
[6] = test system: Candida albicans ATCC 10231
Escherichia coli D31 = test system: Escherichia coli D31
[7] = test system: Pseudomonas aeruginosa ATCC 15442
[8] = test system: Pseudomonas aeruginosa PAO1
[9] = test system: Staphylococcus aureus ATCC 25923
[10] = test system: Staphylococcus aureus ATCC 43300
Staphylococcus aureus MR = test system: Staphylococcus aureus MR
[11] = test system: Acinetobacter baumannii ATCC 19606
[12] = test system: Candida albicans ATCC 90028
[13] = test system: Cryptococcus neoformans ATCC 208821
[14] = test system: Klebsiella pneumoniae ATCC 700603
[15] = test system: Staphylococcus aureus SH1000
[16] = test system: Escherichia coli ATCC 15597
[17] = test system: Klebsiella pneumoniae NCTC 5055
[18] = test system: Micrococcus luteus ATCC 49732
[19] = test system: Salmonella typhimurium DA6192
[20] = test system: Staphylococcus aureus ATCC 6538
[21] = test system: Cryptococcus neoformans ATCC 32045
[22] = test system: Escherichia coli ATCC 2592
[23] = test system: Pseudomonas aeruginosa ATCC 10145
[24] = test system: Staphylococcus aureus ATCC 33591
Escherichia coli J2210 = test system: Escherichia coli J2210
Escherichia coli JJ2487 = test system: Escherichia coli JJ2487
Escherichia coli JW0013 = test system: Escherichia coli JW0013
Escherichia coli MC1061 = test system: Escherichia coli MC1061
Escherichia coli O157:H7 = test system: Escherichia coli O157:H7
[25] = test system: Salmonella enterica subsp. enterica serovar Enteritidis MH91989
[26] = test system: Salmonella typhimurium SL1344

Compound: CC[C@H](C)[C@H](NC(=O)[C@H](C)NC(=O)CNC(=O)[C@H](Cc1ccccc1)NC(=O)[C@H](CC(C)C)NC(=O)CN)C(=O)N[C@@H](C)C(=O)NCC(=O)N[C@@H](Cc1ccccc1)C(=O)N[C@H](C(=O)N[C@@H](CCCCN)C(=O)N[C@@H](CC(N)=O)C(=O)NCC(=O)N[C@@H](Cc1c[nH]c2ccccc12)C(=O)N[C@@H](CCCCN)C(=O)NCC(=O)N[C@@H](CCSC)C(=O)N[C@H](C(=O)N[C@@H](CCCCN)C(=O)NCC(N)=O)[C@@H](C)CC)[C@@H](C)CC [GLFGAIAGFIKNGWKGMIKG]
MIC [1]: 3.8 µM (≈ 7.85 µg/mL)
MIC [2]: 7.6 µM (≈ 15.7 µg/mL)
MIC [3]: 3.8 µM (≈ 7.85 µg/mL)
MIC [4]: 1.9 µM (≈ 3.92 µg/mL)

Compound: CC(C)C[C@H](NC(=O)[C@H](CCCN=C(N)N)NC(=O)[C@H](CC(C)C)NC(=O)[C@H](CCCN=C(N)N)NC(=O)[C@H](CC(C)C)NC(=O)[C@H](CCCN=C(N)N)NC(=O)[C@H](CC(C)C)NC(=O)[C@H](CCCN=C(N)N)NC(=O)[C@H](CC(C)C)NC(=O)[C@H](CCCN=C(N)N)NC(=O)[C@H](CC(C)C)NC(=O)[C@H](CCCN=C(N)N)NC(=O)[C@@H](N)CC(C)C)C(=O)N[C@@H](CCCN=C(N)N)C(=O)O [LRLRLRLRLRLRLR]
MIC [6]: 186 µM (≈ 354 µg/mL)
MIC [21]: 2.97 µM (≈ 5.66 µg/mL)
MIC [22]: 23 µM (≈ 43.8 µg/mL)
MIC [23]: ≥ 65.7 µM
MIC [24]: ≥ 186 µM

Compound: NCCCC[C@H](NC(=O)[C@H](Cc1ccccc1)NC(=O)[C@H](CCCCN)NC(=O)[C@H](CCCCN)NC(=O)[C@H](Cc1ccccc1)NC(=O)[C@H](CCCCN)NC(=O)[C@H](CCCCN)NC(=O)[C@H](Cc1ccccc1)NC(=O)[C@H](CCCCN)NC(=O)[C@H](CCCCN)NC(=O)[C@H](Cc1ccccc1)NC(=O)[C@H](CCCCN)NC(=O)[C@H](CCCCN)NC(=O)[C@H](Cc1ccccc1)NC(=O)[C@H](CCCCN)NC(=O)[C@H](CCCCN)NC(=O)[C@H](Cc1ccccc1)NC(=O)[C@H](CCCCN)NC(=O)[C@H](CCCCN)NC(=O)[C@H](Cc1ccccc1)NC(=O)[C@@H](N)CCCCN)C(=O)O [KFKKFKKFKKFKKFKKFKKFK]
MIC [6]: 124 µM (≈ 354 µg/mL)
MIC [21]: 17.5 µM (≈ 49.8 µg/mL)
MIC [22]: 15.4 µM (≈ 43.8 µg/mL)
MIC [23]: ≥ 44 µM
MIC [24]: ≥ 176 µM

Compound: CC[C@H](C)[C@H](N)C(=O)N[C@@H](CCC(N)=O)C(=O)N[C@@H](CCCCN)C(=O)N[C@H](C(=O)N[C@H](C(=O)N[C@@H](CCC(N)=O)C(=O)N[C@@H](CCCCN)C(=O)N[C@@H](CC(C)C)C(=O)N[C@@H](CC(C)C)C(=O)N[C@@H](CC(N)=O)C(=O)N[C@@H](CCCN=C(N)N)C(=O)N[C@@H](CC(C)C)C(=O)N[C@@H](CCC(N)=O)C(=O)N[C@@H](CCCCN)C(=O)N[C@H](C(=O)N[C@@H](CC(C)C)C(=O)N[C@@H](CCC(N)=O)C(=O)N[C@@H](CCCCN)C(=O)O)[C@@H](C)CC)[C@@H](C)CC)C(C)C [IQKVIQKLLNRLQKILQK]
MIC [5]: 4.2 µM (≈ 9.26 µg/mL)
MIC [16]: 3.1 µM (≈ 6.83 µg/mL)
MIC [17]: 12.5 µM (≈ 27.6 µg/mL)
MIC [18]: 1.05 µM (≈ 2.32 µg/mL)
MIC [2]: 3.1 µM (≈ 6.83 µg/mL)
MIC [19]: 20.8 µM (≈ 45.9 µg/mL)
MIC [20]: > 50 µM

The remaining lines, values ahead:

MIC [5]: ≥ 100 µM
MIC [6]: > 100 µM
MIC [1]: 12.5 µM (≈ 18.2 µg/mL)
MIC (Escherichia coli D31): ≥ 100 µM
MIC [7]: 6.2 µM (≈ 9.03 µg/mL)
MIC [8]: > 100 µM
MIC [9]: 3.1 µM (≈ 4.51 µg/mL)
MIC [10]: 6.2 µM (≈ 9.03 µg/mL)
MIC (Staphylococcus aureus MR): 12.5 µM (≈ 18.2 µg/mL)
MIC [4]: 6.2 µM (≈ 9.03 µg/mL)
Compound: CC[C@H](C)[C@H](NC(=O)[C@H](CCCCN)NC(=O)[C@H](CCC(N)=O)NC(=O)[C@H](CC(C)C)NC(=O)[C@@H](N)Cc1ccccc1)C(=O)N[C@H](C(=O)NCC(=O)N[C@@H](C)C(=O)N[C@@H](CC(C)C)C(=O)NCC(=O)N[C@@H](Cc1cnc[nH]1)C(=O)N[C@@H](CC(C)C)C(=O)N[C@@H](Cc1ccccc1)C(N)=O)[C@@H](C)CC [FLQKIIGALGHLF]

MIC [11]: > 20 µM
MIC [12]: 20 µM (≈ 32.3 µg/mL)
MIC [13]: 20 µM (≈ 32.3 µg/mL)
MIC [1]: > 20 µM
MIC [14]: > 20 µM
MIC [2]: > 20 µM
MIC [10]: > 20 µM
MIC [15]: 3.3 µM (≈ 5.32 µg/mL)
Compound: CC[C@H](C)[C@H](NC(=O)[C@H](CC(=O)O)NC(=O)[C@H](Cc1ccccc1)NC(=O)[C@H](CC(C)C)NC(=O)CN)C(=O)N[C@H](C(=O)N[C@@H](CCCCN)C(=O)N[C@@H](CCCCN)C(=O)N[C@H](C(=O)N[C@@H](CC(C)C)C(=O)N[C@@H](CCCCN)C(=O)N[C@@H](CC(C)C)C(=O)N[C@@H](CC(C)C)C(=O)N[C@@H](CCCCN)C(N)=O)C(C)C)C(C)C [GLFDIVKKVLKLLK]

MIC [5]: 15 µM (≈ 31.2 µg/mL)
MIC [16]: 3.1 µM (≈ 6.46 µg/mL)
MIC [17]: ≥ 50 µM
MIC [18]: 1.5 µM (≈ 3.12 µg/mL)
MIC [2]: 25 µM (≈ 52.1 µg/mL)
MIC [19]: ≥ 40 µM
MIC [20]: 15 µM (≈ 31.2 µg/mL)
Compound: CC[C@H](C)[C@H](N)C(=O)N[C@H](C(=O)N[C@@H](CCCCN)C(=O)N[C@H](C(=O)N[C@H](C(=O)N[C@H](C(=O)N[C@@H](CCCCN)C(=O)N[C@@H](CC(C)C)C(=O)N[C@@H](CC(C)C)C(=O)N[C@@H](CC(N)=O)C(=O)N[C@@H](CCCN=C(N)N)C(=O)N[C@@H](CC(C)C)C(=O)N[C@H](C(=O)N[C@@H](CCCCN)C(=O)N[C@H](C(=O)N[C@@H](CC(C)C)C(=O)N[C@@H](CO)C(=O)N[C@@H](CCCCN)C(=O)O)[C@@H](C)CC)[C@@H](C)O)[C@@H](C)O)[C@@H](C)CC)C(C)C)[C@@H](C)O [ITKVITKLLNRLTKILSK]

MIC [11]: > 22 µM
MIC [12]: 22 µM (≈ 32.7 µg/mL)
MIC [13]: 22 µM (≈ 32.7 µg/mL)
MIC [1]: > 22 µM
MIC [14]: > 22 µM
MIC [2]: > 22 µM
MIC [10]: > 22 µM
MIC [15]: ≥ 33 µM
Compound: CC[C@H](C)[C@H](NC(=O)[C@H](CC(=O)O)NC(=O)[C@H](Cc1ccccc1)NC(=O)[C@H](CC(C)C)NC(=O)CN)C(=O)N[C@H](C(=O)N[C@@H](CCCCN)C(=O)N[C@@H](CCCCN)C(=O)N[C@H](C(=O)N[C@H](C(=O)NCC(=O)N[C@@H](C)C(=O)N[C@@H](CC(C)C)C(=O)N[C@@H](CCCCN)C(N)=O)C(C)C)C(C)C)C(C)C [GLFDIVKKVVGALK]

MIC (Escherichia coli J2210): 0.245 µM (≈ 0.6 µg/mL)
MIC (Escherichia coli JJ2487): 0.159 µM (≈ 0.39 µg/mL)
MIC (Escherichia coli JW0013): 0.339 µM (≈ 0.83 µg/mL)
MIC (Escherichia coli MC1061): 0.122 µM (≈ 0.3 µg/mL)
MIC (Escherichia coli O157:H7): 0.98 µM (≈ 2.4 µg/mL)
MIC [25]: 0.245 µM (≈ 0.6 µg/mL)
MIC [26]: 0.245 µM (≈ 0.6 µg/mL)
Compound: CC[C@H](C)[C@H](NC(=O)[C@H](CCCN=C(N)N)NC(=O)[C@H](CCCN=C(N)N)NC(=O)[C@@H]1CCCN1C(=O)[C@@H]1CCCN1C(=O)[C@H](CCCN=C(N)N)NC(=O)[C@@H]1CCCN1C(=O)[C@H](CCCN=C(N)N)NC(=O)[C@@H]1CCCN1C(=O)[C@H](CC(C)C)NC(=O)[C@H](Cc1ccc(O)cc1)NC(=O)[C@@H]1CCCN1C(=O)[C@H](CCCN=C(N)N)NC(=O)[C@H](CCCCN)NC(=O)[C@H](CC(=O)O)NC(=O)[C@@H](N)C(C)C)C(=O)N[C@@H](Cc1ccc(O)cc1)C(=O)N[C@@H](CC(N)=O)C(=O)N[C@@H](CCCN=C(N)N)C(N)=O [VDKRPYLPRPRPPRRIYNR]
